Literature values as cited in US11766428B2 (TAVANTA THERAPEUTICS HUNGARY INCORPORATED, priority 2018, dated 2023).

Key:
[1] = not given; remark: listed apart in the source

SMILES	circulating drug bound to plasma proteins (ex vivo, hypertensive patients)	influence of renal impairment on pharmacokinetics (human, in vivo)	parent compound excreted in the urine (human, in vivo)	therapeutic plasma level (human, in vivo)	effect of food on bioavailability (oral)	solubility in ethanol [1]	solubility in water [1]
CCOC(=O)C1=C(COCCN)NC(C)=C(C(=O)OC)C1c1ccccc1Cl (stereo not shown) [amlodipine]	approximately 93%	not significantly influenced	10%	3 to 10 ng/mL	not altered by the presence of food	–	–
CCOC(=O)C1=C(COCCN)NC(C)=C(C(=O)OC)C1c1ccccc1Cl (racemic) [Amlodipine besylate, 3-ethyl-5-methyl (±)-2-[(2-aminoethoxy)methyl]-4-(2-chlorophenyl)-1,4-dihydro-6-methyl-3,5-pyridinedicarboxylate, monobenzenesulphonate]	–	–	–	–	–	sparingly soluble	slightly soluble
